Experimental data: paper PMC10747822 (Pharmaceutics, 2023)
Read-outs that look alike come from different tables or passages of the source. Where a SMILES comes first, the peptide text is derived from it. [ ]: non-standard residue; d: D form. The star is where a group is joined. NH(4-amidinobenzyl) = N=C(N)c1ccc(CN*)cc1

Tests used:
[1] = Stability in human Li-heparin plasma; type: in vitro ADME; details: pooled human Li-heparin plasma, over at least 2 h; 1000 ng/mL, room temperature; UPLC-MS/MS
Protocol: (§1) To investigate peptide stability, minimally diluted plasma or blood samples were generated through the addition of 10 µL of a spiking solution (50,000 ng/mL) to 490 µL of the pertinent biological matrix, resulting in a sample concentration of 1000 ng/mL. Samples (withdrawal of duplicates of 20 µL) were measured immediately after preparation and again after 1 and 2 h. Stability was evaluated via the comparison of peak area ratios of analyte and IS.
(§2) Because an isotopically labeled analog of Ac-[D-Leu]LLLRVK-amba was used as IS, potential variations in (negligible) matrix effects can be efficiently balanced by the IS due to its identical physicochemical characteristics. As a consequence, whole blood from other species is appropriate for calibration and QC preparation. Therefore, whole blood from human donors was used for these purposes, which also helps to reduce animal sacrifice.

[2] = Stability in human whole blood; type: in vitro ADME; details: human whole blood (K-EDTA), over at least 2 h; 1000 ng/mL, room temperature; UPLC-MS/MS
Protocol: as §1, §2

[3] = Metabolite identification / degradation in mouse plasma by HRMS; type: in vitro ADME; details: minimally diluted mouse plasma
Protocol: Metabolite identification experiments were performed in minimally diluted mouse plasma at a Ac-[D-Leu]LLLRVK-amba concentration of 20 µg/mL. Minimally diluted plasma samples were incubated at room temperature and analyzed after 0, 0.5, 4, and 16 h. Samples were depleted from proteins via precipitation with a 2-fold excess of ACN + 0.1% FA and diluted with one equivalent of water + 0.1% FA for direct infusion onto the mass spectrometer.
High-resolution mass spectrometric (HRMS) determinations for the investigation of Ac-[D-Leu]LLLRVK-amba metabolism/degradation in plasma were performed on a Xevo G2-XS QTof (Waters, Milford, MA, USA) equipped with a heated Z-spray ESI source. Measurements were performed via direct infusion using the integrated infusion pump with positive ion sensitivity mode.

[4] = Blood pharmacokinetics in mice after intravenous and intraperitoneal injection; type: in vivo, C57Bl/6 female mice; details: for half-life: C57Bl/6, mouse, whole blood sampled at 20, 40, 60, 120 min, non-compartmental
Protocol: Animal studies were approved by the regulatory authorities (Regierungspräsidium Karlsruhe of the state of Baden-Württemberg/Germany, 35-9185.81/G-145/21) and fully complied with European and national regulations for the care and use of laboratory animals (2010/63/EU). Eight- to ten-week-old C57Bl/6 female mice (Janvier) were used for the study.
The animals were administered 4 mg/kg Ac-[D-Leu]LLLRVK-amba in 0.100 mL 0.9% sodium chloride (NaCl) solution per mouse. Four animals received the peptide as intraperitoneal injection, and three animals as intravenous bolus injection into the tail vein. Blood samples were taken 20, 40, 60, and 120 min after administration by collecting a drop of blood from puncture of the facial vein into EDTA tubes (KABE Labortechnik, Nümbrecht, Germany). Whole-blood samples were immediately snap-frozen in liquid nitrogen and stored at −80 °C until analysis.
Blood samples for calibration and QC purposes were generated through the addition of 25 µL of the pertinent spike solution to 20 µL of blank blood and the subsequent addition of 25 µL of IS solution. Calibration samples were produced at 10, 30, 100, 300, 1000, 3000, and 10,000 ng/mL, and QC samples were produced at concentrations of 10, 30, 3750, and 7500 ng/mL. For study sample processing, 20 µL of each sample was added to 25 µL of IS solution, and 25 µL of ACN/H2O 1/1 + 0.1% FA was added for volume compensation to ensure that sample preparation matches that of study blood samples. For stability reasons, each sample was immediately depleted from proteins by adding 150 µL ACN including 0.1% FA. Samples were processed individually and kept frozen until processing. Subsequently, samples were centrifuged at 13,200× g for 5 min. From the extracts, 10 µL was transferred to 400 µL of ACN/H2O 1/19 + 0.1% FA in wells of a 96-well collection plate (Waters, Milford, MA, USA).
Calibration curves were determined with 1/x^2 weighted linear regression using peak area ratios of the analyte to IS. This calculation was performed using the software TargetLynx V4.2 (Waters, Milford, MA, USA). Blood pharmacokinetics were determined with the software Kinetica (v 5.0; Thermo Fisher Scientific, Waltham, MA, USA). Pharmacokinetic analyses were performed using standard non-compartmental methods. The elimination rate (λ) was calculated by linear regression of ln-transformed concentrations from the terminal concentration decline, and the half-life was calculated as ln 2 divided by λ. Standard calculations were performed using Microsoft Office Excel 2010 (Mountain View, CA, USA).

[5] = 37 °C, 500 µg/mL; cited from earlier work
Protocol: However, these were conducted at a substantially higher concentration of Ac-[D-Leu]LLLRVK-amba of 500 µg/mL compared to the 1 µg/mL investigated here. […] Such lower stability in plasma compared to whole blood was already reported for several peptides.

LNCaP xenograft = details: cited from earlier work
Source text: A major challenge in the development of peptide therapeutics is their susceptibility to enzymatic hydrolysis in biological systems. A primary mechanism of enzymatic degradation of small peptides in the systemic circulation is peptidase-mediated hydrolysis, especially of terminal amino acids by exopeptidase activity. Ac-[D-Leu]LLLRVK-amba comprises stability-enhancing modifications at both peptide termini: a D-amino acid at the N-terminus and an amba-moiety as a decarboxylated arginine variant at the C-terminus. Both modifications impair substrate properties for exopeptidases and thus inc ... || The pharmacokinetics of Ac-[D-Leu]LLLRVK-amba was already determined after intravenous bolus injection. With a half-life of only 9 min, this route of administration only produced a short period of potentially effective concentrations. […] Therefore, we aimed at flattening the pharmacokinetic profile with alternate routes of administr ...

- degradation in human Li-heparin plasma [1]: no detectable degradation
- degradation in human whole blood [2]: no detectable degradation
- metabolites / degradation products in mouse plasma ([3]; 20 µg/mL, room temperature over 16 h, HRMS, neither peptide bond hydrolysis nor oxidation products): no traces of metabolites were observed
- stability in mouse plasma at 20 µg/mL ([3]; room temperature, 0, 0.5, 4 and 16 h, HRMS direct infusion (m/z 50-1200)): several hours
- level at 2 h ([4]; female, C57Bl/6, ip, mouse #1, 2 h after intraperitoneal administration of 4 mg/kg, whole blood, UPLC-MS/MS, single sample, read-out: calculated blood concentration): 15.8 ng/mL
- half-life ([4]; female, ip, mice, 4 mg/kg intraperitoneal, n = 4, UPLC-MS/MS, read-out: half-life after intraperitoneal administration): 15.9 ± 1 min
- half-life ([4]; female, mice, 4 mg/kg intravenous bolus into tail vein, n = 3, UPLC-MS/MS, read-out: half-life after intravenous injection): 21 ± 1.6 min
- intraperitoneal absorption ([4]; mice, 4 mg/kg intraperitoneal vs intravenous, judged by partial profiles, bioavailability not calculable): very efficient
SMILES: CC(=O)N[C@H](CC(C)C)C(=O)N[C@@H](CC(C)C)C(=O)N[C@@H](CC(C)C)C(=O)N[C@@H](CC(C)C)C(=O)N[C@@H](CCCNC(=N)N)C(=O)N[C@H](C(=O)N[C@@H](CCCCN)C(=O)NCc1ccc(C(=N)N)cc1)C(C)C [Ac-[D-Leu]LLLRVK-amba] (Ac-[dL]LLLRVK-{NH(4-amidinobenzyl)})
- half-life in Na-heparin mouse plasma [5]: 1080 min
- efficacy in mouse xenograft models of prostate cancer (LNCaP xenograft; daily intravenous and intratumoral injection of 2 mg/kg): demonstrated
- efficacy in treating prostate cancer in LNCaP xenograft mice, by route (LNCaP xenograft; intratumoral vs intravenous administration): substantially higher when injected intratumorally than when administered intravenously
